Experimental data: patent US12329760B2, “Methods and compositions for targeting retinoic acid for solid tumor immunotherapy” (THE TRUSTEES OF THE UNIVERSITY OF PENNSYLVANIA, priority 2019, dated 2025)

Test system: MCAS cells
Assay: RALDH3 expression in treated MCAS cells by RT-QPCR
Assay type: cell-based, murine
Settings: for RALDH3 expression (relative to 18S): MCAS cells treated in vitro with cytokine, vs no Tx
Procedure: FIGS. 16A-16C show 1L13 and RALDH expression. FIG. 16A: MCAS cells were treated in vitro with indicated agents and RALDH3 expression (relative to 18S) measured by RT-QPCR. P<0.05 between no Tx and IL4 or IL13. N=3, repeated >5 times. FIG. 16B: IL13 and IL13Rα1 staining in murine UPS. FIG. 16C: Single cell suspension from MCAS tumors were fractionated into CD45+(Leukocytes) and CD45-fraction using miltenyi magnetic columns. RT-QPCR based measurement (relative to 18S) of IL13 and IL13Rα1 transcripts were performed on fractionated cells. P<0.01 for IL13. N=3, experiment repeated twice.
FIG. 20A: MCAS cells were treated with indicated compounds and RALDH3 expression (relative to 18S) measured by RT-QPCR. P<0.01 for DMSO vs. IL13. P<0.05 for IL13 vs. IL13+BMS493. FIG. 20B: Schematic of RALDH3 regulation by RA.
Aldefluor positive and negative cells were purified from murine fibrosarcomas and were transplanted into syngeneic B6 mice. Tumors derived from both types of cells generated both aldefluor positive and negative cells. This indicated the existence of an environmental signal in the TME that induces RA production in tumor cells. Th2 cytokines such as IL4 and IL13 can promote the differentiation of monocytes into either immunostimulatory DCs or immunosuppressive TAMS. Therefore, it was reasoned that tumors might induce RA production in the presence of IL4 or IL13 to block DC and promote TAM differentiation. To test this, MCAS cell lines were treated with cytokines promoting macrophage and DC differentiation and measured the expression of RALDH enzymes. […] IL13 and its receptor IL13Rα1 were also detected in murine sarcomas by IHC (FIG. 16B).

IL13: Th2 cytokine
potency of RALDH3 induction, IL13 compared with IL4 (MCAS cells in vitro): more potent
RALDH3 expression (relative to 18S): induced the expression of RALDH3

B1: IL4: Th2 cytokine (protein, UniProt P05112 25-153, looked up)
Interleukin-4: HKCDITLQEIIKTLNSLTEQKTLCTELTVTDIFAASKNTTEKETFCRAATVLRQFYSHHEKDTRCLGATAQQFHRHKQLIRFLKRLDRNLWGLAGLNSCPVKEANQSTLENFLERLKTIMREKYSKCSS
RALDH3 expression (relative to 18S): induced the expression of RALDH3
